“Also recorded” adds a separate entry of the source.
What was measured:
Shh pathway = Shh pathway expression (Gli1, N-Myc; Western Blot, real time Q-PCR) in GCP neurosphere cultures; assay type: cell-based, mouse; conditions: Western Blot, neurospheres under different culture conditions; SAG 200 nM, EGF 1 μM
Method: (§1) After surgical resection from a mouse on the seventh day of postnatal life (P7) the cerebellum was mechanically shredded in a buffer containing HBSS, glucose and antibiotics, and DNase (at concentrations as defined above) and the individual cells thus obtained were counted and plated at a dilution of 16000 cells/cm^2 on a medium composed of DMEM-F12, glucose, Vitamin A-free B27, insulin, NALC, heparin, antibiotics (at concentrations as defined above) and SAG (200 nM) and EGF ([…]). On this medium the cells can be enriched and maintained for an unlimited time, after periodical dissociation of the spheres with Accutase® (2-3 times per week) and propagation by dilution (to prevent excessive growth and consequent death from nutrient deficiency and hypoxia). The reaction conditions were as described above.

GCP cells = experiment: Clonogenicity / long-term propagation of GCP neurosphere cultures; assay type: cell-based, mouse
Method: as §1

In the case of `CNC1CCC(N(Cc2cccc(-c3ccncc3)c2)C(=O)c2sc3ccccc3c2Cl)CC1` (stereo not drawn) [SAG], the “expression of molecular biomarkers of the Shh pathway, Gli1 and N-Myc” value (Shh pathway) is reported as “active; also recorded: maintains a high expression of the Shh pathway”, the “long-term survival of the culture” value (GCP cells; factor alone) is reported as “does not ensure long-term survival of the culture” and the “clonogenic power (average spheres) over time” value (GCP cells; several weeks after being grown) is reported as “undergoes progressive decline”.

From patent publication US20220177834A1, “STABLE SYSTEM FOR THE IN VITRO CULTURE OF CEREBELLAR GRANULE CELL PRECURSORS (GCP), STABLE METHOD FOR THE IN VITRO CULTURE OF SAID CELLS AND USE OF SAID SYSTEM OR METHOD FOR IN VITRO CULTURE” (UNIVERSITA DEGLI STUDI Dl ROMA "LA SAPIENZA", priority 2019, published 2022)
